These results are taken from patent US20250230154A1, “COMPOUND HAVING SHP2 PROTEIN DEGRADING ACTIVITY, AND MEDICAL USES THEREOF” (UBIX THERAPEUTICS, INC., priority 2021, published 2025).

The experiment has as its target T1, SHP2 protein (Homo sapiens, UniProt Q06124).
T1 sequence (Q06124 1-593): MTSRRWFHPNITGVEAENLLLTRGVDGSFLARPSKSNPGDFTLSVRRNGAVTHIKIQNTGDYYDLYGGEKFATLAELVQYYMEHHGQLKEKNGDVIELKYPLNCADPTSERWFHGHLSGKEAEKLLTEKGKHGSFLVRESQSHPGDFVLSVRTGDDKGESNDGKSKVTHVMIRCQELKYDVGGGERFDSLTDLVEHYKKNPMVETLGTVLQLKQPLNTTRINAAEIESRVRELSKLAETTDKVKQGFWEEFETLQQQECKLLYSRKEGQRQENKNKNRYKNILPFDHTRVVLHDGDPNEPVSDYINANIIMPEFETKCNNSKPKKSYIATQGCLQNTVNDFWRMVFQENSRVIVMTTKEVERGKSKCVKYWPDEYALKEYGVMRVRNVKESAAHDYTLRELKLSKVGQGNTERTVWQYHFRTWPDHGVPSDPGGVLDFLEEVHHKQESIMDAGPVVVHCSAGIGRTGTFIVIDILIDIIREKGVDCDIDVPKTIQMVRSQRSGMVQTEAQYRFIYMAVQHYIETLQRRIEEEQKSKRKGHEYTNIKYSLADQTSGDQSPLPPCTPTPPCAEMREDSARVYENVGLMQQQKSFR
In words: Measurement of SHP2 protein degradation in MV-4-11 cells (western blotting). It is filed as cell-based. Details: endogenous in cells; host or cells: MV-4-11. The settings on record: MV-4-11 cells, 24 hours. As to the method: Experimental Example 2: Measurement of SHP2 Protein Degradation in MV-4-11 Cells
MV-4-11 cells were treated with the synthesized Example compound, and the amount of SHP2 protein present in the cells was measured using western blotting detection. The protocol of the experiment conducted using MV-4-11 cells was as follows:
[Culture] MV-4-11 cells resuspended in IMDM MEDIUM (Hyclone, SH30228.01) containing 5% FBS (Hyclone, SV30207.02) and 1% Penicillin-streptomycin (Welgene, LS 202-02) were seeded at a density of 1×10^6/mL/well in a 12-well plate in an amount of 1 ml each.
[Compound treatment] The 12-well plate was treated as follows: Cells were treated with compounds at a final concentration of […] made by serial dilution of 10 mM stock with DMSO in 1/100 increments […]. After 24 hours, cells were harvested. For the negative control group, DMSO diluted 1/100 to the media (3 mL DMSO+297 mL media) was added.
[Harvest] Each well was collected in a 1.5 mL microtube by pipetting with a 1 mL pipette and centrifuged (500 g, 5 min, 4° C.). The supernatant was removed. It was washed with PBS, and then centrifuged again (500 g, 5 min, 4° C.). Thereafter, the supernatant was removed to prepare a pellet.
[Cell Lysis and Sample preparation] Lysis buffer was prepared as follows: […] of RIPA buffer (Biosesang, RC2038-050-00)+0.5 mM PMSF (SIGMA, P7626)+1× Protease/Phosphatase Inhibitor (Cell signaling, 5872S) per well was added and placed on ice for 30 minutes (vortexing at 0 and 30 minutes, respectively). After sonication process (10 seconds pulse, 30 seconds rest, 5 cycles, 70% amplification), centrifugation (15000 g, 15 min, 4° C.) was performed, and then only the supernatant was taken and transferred to a microtube. The sample was diluted ¼ with RIPA buffer in a 96-well plate, and mixed with A:B=50:1 of the BCA Protein Assay Kit (iNtRON, 21071). […] each of the mixture was left at 37° C. for 30 minutes, and cooled for 10 minutes. Then, absorbance was measured at 562 nm with the SYNERGY H1 microplate reader from BioTek. After making a sample by quantifying the protein with the measured value, boiling was performed at 70° C. for 10 minutes. At this time, the sample buffer used was a mixture of NuPAGE or Bolt 4× sample buffer (Invitrogen) and each 10× sample reducing agent according to the gel to be used, and RIPA buffer was used for protein dilution.
[Western blotting detection method] The same amount of sample was loaded on NuPAGE or Bolt Bis-tris 4-12% gradient gel and run (200 V, 35 minutes). It was transferred to 0.2 mm NC membrane with Trans-blot Turbo (BIO-RAD) (1.3 A constant, 25 V limit, 15 minutes). Blocking was performed at room temperature for 1 hour with Skim milk or Intercept Blocking Buffer (LI-COR, 927-60001):0.1% TBST=1:1. Anti-SHPTP2 Mouse (1:500 in 2% BSA/0.2% TBST, size: 70 kDa, Santacruz sc-7384) was incubated overnight at 4° C., and Anti-GAPDH Rabbit (1:2,000 in 2% BSA/0.2% TBST, size: 37 kDa, CST #2118) was incubated at room temperature for 1 hour 30 minutes or 3 hours. It was washed 3 times for 5 minutes each with 0.2% TBST washing buffer. Secondary antibody Anti-Rabbit IgG (1:5,000 in 2% BSA/0.2% TBST, CST), IRDye® 680RD Goat anti-Rabbit IgG Secondary Antibody (1:10,000 in 2% BSA/0.2% TBST, LI-COR 926-68071) were added and incubated for 45 minutes on a rocker at room temperature. It was washed 5 times for 5 minutes each with 0.2% TBST washing buffer and detected with LI-COR's Odyssey. At this time, SHPTP2 was detected using SuperSignal West Pico PLUS Chemiluminescent Substrate, and house-keeping genes were also detected.
In the results of Table 4 below, Compounds 1-7, 13-19, and 21-26 are results in KYSE-520 cells, and the others are results in MV-4-11 cells.
For orientation: Immunoblotting shows a protein as a band on a membrane.

`CC(=O)N[C@H](C(=O)N1C[C@H](O)C[C@H]1C(=O)NCc1ccc(-c2scnc2C)cc1OCCN1CCN(C(=O)CC(=O)Nc2cccc(Sc3cnc(N4CCC(C)(CN)CC4)cn3)c2Cl)CC1)C(C)(C)C` [Example 57, (2S,4R)-1-((S)-2-acetamido-3,3-dimethylbutanoyl)-N-(2-(2-(4-(3-((3-((5-(4-(aminomethyl)-4-methylpiperidin-1-yl)pyrazin-2-yl)thio)-2-chlorophenyl)amino)-3-oxopropanoyl)piperazin-1-yl)ethoxy)-4-(4-methylthiazol-5-yl)benzyl)-4-hydroxypyrrolidine-2-carboxamide]: the “SHP2 degradation (%) 10 nM” value was found to be 95.7%, the “SHP2 degradation (%) 100 nM” value stood at 99.8% and the “SHP2 degradation (%) 1000 nM” value amounted to 99.7%.
On to `Cc1ncsc1-c1ccc(CNC(=O)[C@@H]2C[C@@H](O)CN2C(=O)[C@@H](NC(=O)C2(F)CC2)C(C)(C)C)c(OCCN2CCN(c3ccc(C(=O)Nc4cccc(Sc5cnc(N6CCC(C)(CN)CC6)cn5)c4Cl)nn3)CC2)c1` [Example 85, N-(3-((5-(4-(aminomethyl)-4-methylpiperidin-1-yl)pyrazin-2-yl)thio)-2-chlorophenyl)-6-(4-(2-(2-(((2S,4R)-1-((S)-2-(1-fluorocyclopropane-1-carboxamido)-3,3-dimethylbutanoyl)-4-hydroxypyrrolidine-2-carboxamido)methyl)-5-(4-methylthiazol-5-yl)phenoxy)ethyl)piperazin-1-yl)pyridazine-3-carboxamide], for which the “SHP2 degradation (%) 10 nM” value is reported as 73% and the “SHP2 degradation (%) 100 nM” value is listed as 97.5%.
On the same counts, the results for `Cc1ncsc1-c1ccc(CNC(=O)[C@@H]2C[C@@H](O)CN2C(=O)[C@@H](NC(=O)C2(F)CC2)C(C)(C)C)c(OCCN2CCN(C(=O)C(C)C(=O)Nc3cccc(Sc4cnc(N5CCC(C)(CN)CC5)cn4)c3Cl)CC2)c1` (stereo partly drawn) [Example 58, (2S,4R)—N-(2-(2-(4-(3-((3-((5-(4-(aminomethyl)-4-methylpiperidin-1-yl)pyrazin-2-yl)thio)-2-chlorophenyl)amino)-2-methyl-3-oxopropanoyl)piperazin-1-yl)ethoxy)-4-(4-methylthiazol-5-yl)benzyl)-1-((S)-2-(1-fluorocyclopropane-1-carboxamido)-3,3-dimethylbutanoyl)-4-hydroxypyrrolidine-2-carboxamide] are 90.0% and 99.9%.
Regarding `Cc1ncsc1-c1ccc(CNC(=O)[C@@H]2C[C@@H](O)CN2C(=O)[C@@H](NC(=O)C2(F)CC2)C(C)(C)C)c(OCCCN2CCN(CC(=O)Nc3cccc(Sc4cnc(N5CCC(C)(CN)CC5)cn4)c3Cl)CC2)c1` [Example 73, (2S,4R)—N-(2-(3-(4-(2-((3-((5-(4-(aminomethyl)-4-methylpiperidin-1-yl)pyrazin-2-yl)thio)-2-chlorophenyl)amino)-2-oxoethyl)piperazin-1-yl)propoxy)-4-(4-methylthiazol-5-yl)benzyl)-1-((S)-2-(1-fluorocyclopropane-1-carboxamido)-3,3-dimethylbutanoyl)-4-hydroxypyrrolidine-2-carboxamide], the “SHP2 degradation (%) 10 nM” value was 8.2% and the “SHP2 degradation (%) 100 nM” value was found to be 81.2%.
On to `CC(=O)N[C@H](C(=O)N1C[C@H](O)C[C@H]1C(=O)NCc1ccc(-c2scnc2C)cc1OCCC1CCN(C(=O)CC(=O)Nc2cccc(Sc3cnc(N4CCC(C)(CN)CC4)cn3)c2Cl)CC1)C(C)(C)C` [Example 38, (2S,4R)-1-((S)-2-acetamido-3,3-dimethylbutanoyl)-N-(2-(2-(1-(3-((3-((5-(4-(aminomethyl)-4-methylpiperidin-1-yl)pyrazin-2-yl)thio)-2-chlorophenyl)amino)-3-oxopropanoyl)piperidin-4-yl)ethoxy)-4-(4-methylthiazol-5-yl)benzyl)-4-hydroxypyrrolidine-2-carboxamide], for which the “SHP2 degradation (%) 10 nM” value amounted to 86%, the “SHP2 degradation (%) 100 nM” value was found to be 93% and the “SHP2 degradation (%) 1000 nM” value is on record as 93.5%.
With `Cc1ncsc1-c1ccc(CNC(=O)[C@@H]2C[C@@H](O)CN2C(=O)[C@@H](NC(=O)C2(F)CC2)C(C)(C)C)c(OCCN2CCN(c3ccc(C(=O)Nc4cccc(Sc5cnc(N6CCC(C)(CN)CC6)cn5)c4Cl)nc3)CC2)c1` [Example 81, N-(3-((5-(4-(aminomethyl)-4-methylpiperidin-1-yl)pyrazin-2-yl)thio)-2-chlorophenyl)-5-(4-(2-(2-(((2S,4R)-1-((S)-2-(1-fluorocyclopropane-1-carboxamido)-3,3-dimethylbutanoyl)-4-hydroxypyrrolidine-2-carboxamido)methyl)-5-(4-methylthiazol-5-yl)phenoxy)ethyl)piperazin-1-yl)picolinamide], the “SHP2 degradation (%) 10 nM” value is 22.7% and the “SHP2 degradation (%) 100 nM” value is 93.2%.
`Cc1ncsc1-c1ccc(CNC(=O)[C@@H]2C[C@@H](O)CN2C(=O)[C@@H](NC(=O)C2(F)CC2)C(C)(C)C)c(OCCN2CC3CCC(C2)N3C(=O)CC(=O)Nc2cccc(Sc3cnc(N4CCC(C)(CN)CC4)cn3)c2Cl)c1` [Example 68, (2S,4R)—N-(2-(2-(8-(3-((3-((5-(4-(aminomethyl)-4-methylpiperidin-1-yl)pyrazin-2-yl)thio)-2-chlorophenyl)amino)-3-oxopropanoyl)-3,8-diazabicyclo[3.2.1]octan-3-yl)ethoxy)-4-(4-methylthiazol-5-yl)benzyl)-1-((S)-2-(1-fluorocyclopropane-1-carboxamido)-3,3-dimethylbutanoyl)-4-hydroxypyrrolidine-2-carboxamide]: the “SHP2 degradation (%) 10 nM” value is listed as 83.3% and the “SHP2 degradation (%) 100 nM” value turned out to be 98.3%.
On to `Cc1ncsc1-c1ccc(CNC(=O)[C@@H]2C[C@@H](O)CN2C(=O)[C@@H](NC(=O)C2CC2)C(C)(C)C)c(OCCN2CCN(C(=O)CC(=O)Nc3cccc(Sc4cnc(N5CCC(C)(CN)CC5)cn4)c3Cl)CC2)c1` [Example 56, (2S,4R)—N-(2-(2-(4-(3-((3-((5-(4-(aminomethyl)-4-methylpiperidin-1-yl)pyrazin-2-yl)thio)-2-chlorophenyl)amino)-3-oxopropanoyl)piperazin-1-yl)ethoxy)-4-(4-methylthiazol-5-yl)benzyl)-1-((S)-2-(cyclopropanecarboxamido)-3,3-dimethylbutanoyl)-4-hydroxypyrrolidine-2-carboxamide], for which the “SHP2 degradation (%) 10 nM” value is given as 91.4% and the “SHP2 degradation (%) 100 nM” value is reported as 98.9%.
